Where “and” joins values, the source holds several entries; their conditions need not be identical. Identical values can stand only once. Like-named read-outs stand apart in the source and are kept apart here. Numbered stars: 1 amine (or outer) side, 2 acyl side, 3 side chain; on linkers, the order of the positions; unused ones are H or OH. Bridge positions count the residues as written; N and C are the ends. Square brackets hold non-standard residues; d marks the D form. Peptide text beside a SMILES is read from it. * marks the point of attachment. Orn(4R-OH,5R-OH) = O=C([C@H](C[C@@H](O)[C@@H](O)N[*:3])N[*:1])[*:2]; hTyr(3S-OH,4S-OH) = N[C@H](C(=O)O)[C@H](O)[C@@H](O)c1ccc(O)cc1; Pro(3S-OH,4S-Me) = C[C@H]1CN[C@H](C(=O)O)[C@H]1O; X1 = O=C(c1cc(I)c(N[*:1])c(I)c1)[*:2]; X5 = O=C(c1cc(Cl)cc(N[*:1])c1Cl)[*:2]; X6 = O=C(C=Cc1ccc(N[*:1])cc1)[*:2]; Palmitoyl = CCCCCCCCCCCCCCCC(=O)*; Hyp = O=C(O)[C@@H]1C[C@@H](O)CN1; X2 = O=C(Cc1ccc(N[*:1])cc1)[*:2]; Myristoyl = CCCCCCCCCCCCCC(=O)*; X3 = O=C(c1cccnc1N[*:1])[*:2]; Lauroyl = CCCCCCCCCCCC(=O)*; 4Abz = Nc1ccc(C(=O)O)cc1
Experiments:
Candida albicans A-26 [1] = experiment: Agar plate disc diffusion test, MIC per disc; type: cell-based; details: 0.01M sodium borate, pH 7.5, 24 hours at 30° C.
Method: (§1) In Table 5, activity is measured by the minimal inhibitory concentration (MIC) of the substance (μg/disc) required to inhibit growth of the test organism.
(§2) *Compounds were suspended in 0.01M sodium borate solution, pH 7.5.
(§3) compounds were tested at 20 μg/disc at top level and at twofold
(§4) dilutions until end points were reached.

Candida albicans A-26 [2] = experiment: Therapeutic activity against Candida albicans A-26 infection in mice; type: in vivo; details: A26, sc
Method: The results of in vivo tests to evaluate the effectiveness of the compound of Examples 61-81, 86 and 88 against an infection caused by Candida albicans A-26 in mice are given in Table 7, where activity is measured by the ED50 value (the dose in mg/kg. required to cure 50% of the test animals). Where an ED50 value was not obtained, activity is indicated by the lowest dose at which a significant anti-fungal effect is observed. In this test, groups of male albino mice (specific pathogen free), weighing 18 to 20 grams, are infected intravenously with Candida albicans A-26. The animals are X-irradiated 24 hours prior to infection at about 50 roentgens per minute for 8 minutes (400 total dose) to reduce immune responses to the infecting organism. At 0, 4, and 24 hours post infection each group of mice is given graded doses subcutaneously of the test compound as a suspension in 33% polyethylene glycol-water. The day of death for each animal is recorded.
*Dosage Schedule: 40, 20, 15, and 10 mg/kg. Dosages given 0, 4, and 24
hours post injection as suspension of test compound in 30% PEGH2 O.
Number of mice receiving test compounds at each dosage level: 6 mice per
group. Number of mice in control (untreated) group: 10 mice per group.
**As measured by increase in survival time of treated animals versus
control, calculated by method of Reed V. Mueuch, American J. Hygiene, 493

Candida albicans A-26 [3] = experiment: Agar plate disc diffusion test, zone of inhibition; type: cell-based; details: 7 mm disc; for Size of Zone of Inhibition: 1 mg/ml suspension in methanol, 24-48 hours at 25-37° C., no regrowth mark
Method: (§5) ^(a) Compounds were tested as suspension in methanol.
(§6) were tested at a concentration of 1 mg/ml by a dipping 7mm disc into the
(§7) suspension and placing it on the agar surface. Incubation: 24-48 hours at

Neurospora Crassa 846 = experiment: Agar plate disc diffusion test, zone of inhibition; type: cell-based; details: Neurospora crassa, 1 mg/ml, 7 mm disc, * measurable zone of inhibition with regrowth of organism around disc
Method: as §5, §6, §7

[4] = Blood levels after oral administration in mice; details: for concentration at 4 h: mouse, po, 416 mg/kg
[5] = tested on: Trichophyton mentagrophytes; experiment: Agar plate disc diffusion test, zone of inhibition; type: cell-based; details: 7 mm disc
Method: as §5, §6, §7

[6] = tested on: Trychophyton mentagrophytes #6; experiment: Agar plate disc diffusion test, MIC per disc; type: cell-based; details: 0.01M sodium borate, pH 7.5, 24 hours at 30° C.
Method: as §1, §2, §3, §4

[7] = tested on: Saccharomyces pastorianus X-52; experiment: Agar plate disc diffusion test, zone of inhibition; type: cell-based; details: Saccharomyces pastorianus, X52, 48 h, 1 mg/ml suspension in methanol, 7 mm disc, 24-48 hours at 25-37° C.
Method: as §5, §6, §7

in vivo = details: mouse, po, 416 mg/kg
[8] = mouse, in vivo, 416 mg/kg, 240 min
[9] = read-out: Lowest Active Dose, subcutaneous at 0, 4 and 24 hours post infection, lowest dose with significant anti-fungal effect
[10] = CRASSA846, Neurospora Crassa 846, read-out: Size of Zone of Inhibition (*)
[11] = 1 mg/ml, * measurable zone of inhibition with regrowth of organism around disc, read-out: Size of Zone of Inhibition (*)
[12] = Saccharomyces pastorianus X-52, read-out: Size of Zone of Inhibition
[13] = subcutaneous at 0, 4 and 24 hours post infection, dose to cure 50% of test animals, by increase in survival time, read-out: ED50
[14] = subcutaneous at 0, 4 and 24 hours post infection, lowest dose with significant anti-fungal effect, read-out: Lowest Active Dose

| SMILES | MIC (Candida albicans A-26 [1]) | ED50 (Candida albicans A-26 [2]) [mg/kg] | minimal effective dose (Candida albicans A-26 [2]; [9]) [mg/kg] | Size of Zone of Inhibition (Candida albicans A-26 [3]) [mm] | zone of inhibition at 1000 µg/mL (Neurospora Crassa 846; [10]) [mm] | concentration at 4 h ([4]; blood) [ng/mL] | zone of inhibition at 1000 µg/mL [5, 11] [mm] | MIC [6] [μg/disc] | zone of inhibition at 1000 µg/mL [7, 12] [mm] | ED50 (Candida albicans A-26 [2]; [13]) [mg/kg] | minimal effective dose (Candida albicans A-26 [2]; [14]) [mg/kg] | concentration at 4 h (in vivo) [ng/mL] | zone of inhibition at 1000 µg/mL ([5]; 48 h, 1 mg/ml suspension in methanol, 24-48 hours at 25-37° C., no regrowth mark, read-out: Size of Zone of Inhibition) [mm] | Size of Zone of Inhibition (*) (Candida albicans A-26 [3]; 1 mg/ml, * measurable zone of inhibition with regrowth of organism around disc) [mm] | zone of inhibition at 1000 µg/mL (Neurospora Crassa 846; CRASSA846, read-out: Size of Zone of Inhibition (*), Neurospora Crassa 846) [mm] | concentration at 4 h ([4]; in vivo) [ng/mL] | zone of inhibition at 1000 µg/mL ([7]; read-out: Size of Zone of Inhibition, Saccharomyces pastorianus X-52) [mm] | Blood Levels [8] [ng/mL] | Blood Levels ([4]; mice, 416 mg/kg by gavage in 33% PEG 400-water, four hours after administration, bioassay vs. Aspergillus montevidensis A35137) [ng/mL] |
| --- | --- | --- | --- | --- | --- | --- | --- | --- | --- | --- | --- | --- | --- | --- | --- | --- | --- | --- | --- |
| CCCCCCCCCCCC(=O)Nc1cc(Cl)cc(C(=O)N[C@H]2C[C@@H](O)[C@@H](O)NC(=O)[C@@H]3[C@@H](O)[C@@H](C)CN3C(=O)[C@H]([C@@H](C)O)NC(=O)[C@H]([C@H](O)[C@@H](O)c3ccc(O)cc3)NC(=O)[C@@H]3C[C@@H](O)CN3C(=O)[C@H]([C@@H](C)O)NC2=O)c1Cl [Example 67] (Lauroyl-[X5][Orn(4R-OH,5R-OH)]T[Hyp][hTyr(3S-OH,4S-OH)]T[Pro(3S-OH,4S-Me)]; lactam 2-C) | 0.625 μg/disc | 14 | 10 | 27 | 35 | 530 | 44 | < 0.039 | 19 | – | – | – | – | – | – | – | – | – | – |
| CCCCCCCCCCCC(=O)Nc1c(I)cc(C(=O)N[C@H]2C[C@@H](O)[C@@H](O)NC(=O)[C@@H]3[C@@H](O)[C@@H](C)CN3C(=O)[C@H]([C@@H](C)O)NC(=O)[C@H]([C@H](O)[C@@H](O)c3ccc(O)cc3)NC(=O)[C@@H]3C[C@@H](O)CN3C(=O)[C@H]([C@@H](C)O)NC2=O)cc1I [Example 68] (Lauroyl-[X1][Orn(4R-OH,5R-OH)]T[Hyp][hTyr(3S-OH,4S-OH)]T[Pro(3S-OH,4S-Me)]; lactam 2-C) | 1.25 μg/disc | – | – | 25 | 30 | – | – | 0.078 | 17 | > 40 | 40 | 340 | 60 | – | – | – | – | – | – |
| CCCCCCCCCCCC(=O)Nc1ccc(CC(=O)N[C@H]2C[C@@H](O)[C@@H](O)NC(=O)[C@@H]3[C@@H](O)[C@@H](C)CN3C(=O)[C@H]([C@@H](C)O)NC(=O)[C@H]([C@H](O)[C@@H](O)c3ccc(O)cc3)NC(=O)[C@@H]3C[C@@H](O)CN3C(=O)[C@H]([C@@H](C)O)NC2=O)cc1 [Example 72] (Lauroyl-[X2][Orn(4R-OH,5R-OH)]T[Hyp][hTyr(3S-OH,4S-OH)]T[Pro(3S-OH,4S-Me)]; lactam 2-C) | 2.5 μg/disc | – | – | 19 | 30 | – | 55 | 0.078 | 20 | > 40 | 40 | 340 | – | – | – | – | – | – | – |
| CCCCCCCCCCCC(=O)Nc1ccc(C=CC(=O)N[C@H]2C[C@@H](O)[C@@H](O)NC(=O)[C@@H]3[C@@H](O)[C@@H](C)CN3C(=O)[C@H]([C@@H](C)O)NC(=O)[C@H]([C@H](O)[C@@H](O)c3ccc(O)cc3)NC(=O)[C@@H]3C[C@@H](O)CN3C(=O)[C@H]([C@@H](C)O)NC2=O)cc1 [Example 73] (Lauroyl-[X6][Orn(4R-OH,5R-OH)]T[Hyp][hTyr(3S-OH,4S-OH)]T[Pro(3S-OH,4S-Me)]; lactam 2-C) | 1.25 μg/disc | – | – | – | 29 | – | 24 | < 0.039 | 17 | 24 | 20 | 1310 | – | 60 | – | – | – | – | – |
| CCCCCCCCCCCC(=O)Nc1ccc(C(=O)NCC(=O)N[C@H]2C[C@@H](O)[C@@H](O)NC(=O)[C@@H]3[C@@H](O)[C@@H](C)CN3C(=O)[C@H]([C@@H](C)O)NC(=O)[C@H]([C@H](O)[C@@H](O)c3ccc(O)cc3)NC(=O)[C@@H]3C[C@@H](O)CN3C(=O)[C@H]([C@@H](C)O)NC2=O)cc1 [Example 74] ({Lauroyl-4Abz}-G[Orn(4R-OH,5R-OH)]T[Hyp][hTyr(3S-OH,4S-OH)]T[Pro(3S-OH,4S-Me)]; lactam 2-C) | 10 μg/disc | > 40 | > 40 | 15 | – | – | – | 0.078 | – | – | – | – | – | – | 28 | 640 | 13 | – | – |
| CCCCCCCCCCCC(=O)Nc1ncccc1C(=O)N[C@H]1C[C@@H](O)[C@@H](O)NC(=O)[C@@H]2[C@@H](O)[C@@H](C)CN2C(=O)[C@H]([C@@H](C)O)NC(=O)[C@H]([C@H](O)[C@@H](O)c2ccc(O)cc2)NC(=O)[C@@H]2C[C@@H](O)CN2C(=O)[C@H]([C@@H](C)O)NC1=O [Example 75] (Lauroyl-[X3][Orn(4R-OH,5R-OH)]T[Hyp][hTyr(3S-OH,4S-OH)]T[Pro(3S-OH,4S-Me)]; lactam 2-C) | 2.5 μg/disc | – | – | 24 | 30 | – | 54 | 0.078 | 14 | > 40 | > 40 | – | – | – | – | – | – | 0 | – |
| CC(=O)Nc1ccc(C(=O)N[C@H]2C[C@@H](O)[C@@H](O)NC(=O)[C@@H]3[C@@H](O)[C@@H](C)CN3C(=O)[C@H]([C@@H](C)O)NC(=O)[C@H]([C@H](O)[C@@H](O)c3ccc(O)cc3)NC(=O)[C@@H]3C[C@@H](O)CN3C(=O)[C@H]([C@@H](C)O)NC2=O)cc1 [Example 77] (Ac-[4Abz][Orn(4R-OH,5R-OH)]T[Hyp][hTyr(3S-OH,4S-OH)]T[Pro(3S-OH,4S-Me)]; lactam 2-C) | > 20 μg/disc and 40 μg/disc | > 40 | > 40 | 24 | 24 | – | 51 | 0.312 | 17 | – | – | – | – | – | – | – | – | – | 0 |
| CCCCCCCCCCCCCC(=O)Nc1ccc(C(=O)N[C@H]2C[C@@H](O)[C@@H](O)NC(=O)[C@@H]3[C@@H](O)[C@@H](C)CN3C(=O)[C@H]([C@@H](C)O)NC(=O)[C@H]([C@H](O)[C@@H](O)c3ccc(O)cc3)NC(=O)[C@@H]3C[C@@H](O)CN3C(=O)[C@H]([C@@H](C)O)NC2=O)cc1 [Example 80] ({Myristoyl-4Abz}-[Orn(4R-OH,5R-OH)]T[Hyp][hTyr(3S-OH,4S-OH)]T[Pro(3S-OH,4S-Me)]; lactam 1-C) | 1.25 μg/disc | 11 | 2.5 | 22 | – | 6500 | – | < 0.039 | 17 | – | – | – | – | – | – | – | – | – | – |
| CCCCCCCCCCCCCCCC(=O)Nc1ccc(C(=O)N[C@H]2C[C@@H](O)[C@@H](O)NC(=O)[C@@H]3[C@@H](O)[C@@H](C)CN3C(=O)[C@H]([C@@H](C)O)NC(=O)[C@H]([C@H](O)[C@@H](O)c3ccc(O)cc3)NC(=O)[C@@H]3C[C@@H](O)CN3C(=O)[C@H]([C@@H](C)O)NC2=O)cc1 [Example 81] ({Palmitoyl-4Abz}-[Orn(4R-OH,5R-OH)]T[Hyp][hTyr(3S-OH,4S-OH)]T[Pro(3S-OH,4S-Me)]; lactam 1-C) | 0.312 μg/disc | 7 | 5 | 25 | – | 36000 | – | < 0.039 | 24 | – | – | – | – | – | – | – | – | – | – |

Source: patent publication US4293483A, “Derivatives of A-30912A nucleus” (priority 1980, dated 1981)
